# Measurements: ChEMBL document CHEMBL1201862, “PubChem BioAssay data set” (2004)
#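 Results reflect a 48-hour exposure of cells in 96-well plates to compound at five concentrations. GI50 = concentration required for 50% inhibition of growth.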 Activity calls are given as the source filed them. Rule as the data show it: active = GI50 up to about 1.1 µM and inactive = higher.
# How the values were obtained:
# Assay in all cases: NCI-60 cell line screen, 48 h
# ACHN = system: ACHN
# DMS-114 = system: DMS-114
# DMS-273 = system: DMS-273
# EKVX = system: EKVX
# IGROV-1 = system: IGROV-1
# MOLT-4 = system: MOLT-4
# OVCAR-3 = system: OVCAR-3
# RXF 393 = system: RXF 393
# SK-OV-3 = system: SK-OV-3
# SNB-78 = system: SNB-78
# DLD-1 = system: DLD-1
# HCC 2998 = system: HCC 2998
# Malme-3M = system: Malme-3M
# SK-MEL-2 = system: SK-MEL-2
# UO-31 = system: UO-31
Structure (SMILES),GI50 (ACHN),GI50 (DMS-114),GI50 (DMS-273),GI50 (EKVX),GI50 (IGROV-1),GI50 (MOLT-4),GI50 (OVCAR-3),GI50 (RXF 393),GI50 (SK-OV-3),GI50 (SNB-78),GI50 (DLD-1),GI50 (HCC 2998),GI50 (Malme-3M),GI50 (SK-MEL-2),GI50 (UO-31)
O=C1CCC2COc3ccc(O)c1c32 (stereo unspecified),> 100 µM (inactive),> 100 µM (inactive),> 100 µM (inactive),51.2 µM (inactive),> 100 µM (inactive),> 100 µM (inactive),> 100 µM (inactive),> 100 µM (inactive),> 100 µM (inactive),> 100 µM (inactive),–,–,–,–,–
C=C1Oc2nc3ccccc3c(=O)n2C1(C)C,> 100 µM (inactive),> 100 µM (inactive),> 100 µM (inactive),> 100 µM (inactive),> 100 µM (inactive),> 100 µM (inactive),> 10 µM (inactive),–,> 100 µM (inactive),> 100 µM (inactive),> 100 µM (inactive),> 100 µM (inactive),> 100 µM (inactive),> 100 µM (inactive),> 100 µM (inactive)
O=C1N(C2CCCCC2)CC12CCCCC2,> 100 µM (inactive),> 100 µM (inactive),> 100 µM (inactive),> 100 µM (inactive),> 100 µM (inactive),> 100 µM (inactive),–,> 100 µM (inactive),> 100 µM (inactive),> 100 µM (inactive),–,> 100 µM (inactive),> 100 µM (inactive),> 100 µM (inactive),> 100 µM (inactive)
COc1ccc2c(c1)OCCC1=C2SCC2(C)CCN=C12 (stereo unspecified),–,92 µM (inactive),> 100 µM (inactive),–,> 100 µM (inactive),52 µM (inactive),72.6 µM (inactive),> 100 µM (inactive),> 100 µM (inactive),> 100 µM (inactive),> 100 µM (inactive),> 10 µM (inactive),–,–,–
O=c1c2ccccc2nc(-c2ccc(Br)cc2)n1NC1OC(CO)C(O)C(O)C1O (stereo unspecified),> 100 µM (inactive),96.6 µM (inactive),> 100 µM (inactive),78.3 µM (inactive),> 100 µM (inactive),31.6 µM (inactive),31.3 µM (inactive),–,> 100 µM (inactive),> 100 µM (inactive),–,82.4 µM (inactive),> 100 µM (inactive),> 100 µM (inactive),78 µM (inactive)
COc1ccc(/N=C\c2cc(OC)c(OC)c(OC)c2)cc1,94 µM (inactive),57.4 µM (inactive),–,> 100 µM (inactive),> 100 µM (inactive),> 100 µM (inactive),–,> 100 µM (inactive),> 100 µM (inactive),> 100 µM (inactive),> 100 µM (inactive),–,> 100 µM (inactive),> 100 µM (inactive),64.9 µM (inactive)
C=C1COC(/C=C(\C)CC/C=C(\C)CCl)C1 (stereo unspecified),> 100 µM (inactive),> 100 µM (inactive),> 100 µM (inactive),> 100 µM (inactive),> 100 µM (inactive),> 100 µM (inactive),> 100 µM (inactive),> 100 µM (inactive),> 100 µM (inactive),> 100 µM (inactive),> 100 µM (inactive),> 100 µM (inactive),–,> 100 µM (inactive),> 100 µM (inactive)
N#CC1(c2nc3ccccc3o2)C(=O)C(=O)N(C2C3CC4CC(C3)CC2C4)C(=O)C1=O (stereo unspecified),> 100 µM (inactive),> 100 µM (inactive),> 100 µM (inactive),> 100 µM (inactive),> 100 µM (inactive),> 100 µM (inactive),> 100 µM (inactive),> 100 µM (inactive),> 100 µM (inactive),> 100 µM (inactive),–,> 100 µM (inactive),> 100 µM (inactive),> 100 µM (inactive),> 100 µM (inactive)
CCOc1ccc(NC(=O)C(=O)CC(=O)c2c(C)[n+]([O-])c3ccccc3[n+]2[O-])cc1,> 100 µM (inactive),> 100 µM (inactive),> 100 µM (inactive),> 100 µM (inactive),> 100 µM (inactive),81.5 µM (inactive),> 100 µM (inactive),> 100 µM (inactive),> 100 µM (inactive),> 100 µM (inactive),–,> 100 µM (inactive),> 100 µM (inactive),> 100 µM (inactive),> 100 µM (inactive)
COc1cc(C2C(C(=O)NCc3ccccc3)=C(C)NC(C)=C2C(=O)NCc2ccccc2)ccc1O,42.5 µM (inactive),39.4 µM (inactive),29.4 µM (inactive),16.6 µM (inactive),34.4 µM (inactive),20.4 µM (inactive),29.8 µM (inactive),28.8 µM (inactive),–,32.8 µM (inactive),–,23.6 µM (inactive),> 100 µM (inactive),22.3 µM (inactive),65.3 µM (inactive)
CCCCCCCC(=O)OCC1OC(n2cc(F)c(=O)[nH]c2=O)C(NC(=O)OCc2ccccc2)C(OC(=O)CCCCCCC)C1O (stereo unspecified),39.2 µM (inactive),24 µM (inactive),15.3 µM (inactive),42.5 µM (inactive),> 100 µM (inactive),9.93 µM (inactive),20.6 µM (inactive),20.2 µM (inactive),> 100 µM (inactive),41.9 µM (inactive),–,35.2 µM (inactive),17.9 µM (inactive),21.6 µM (inactive),0.106 µM (active)
O=C1NC2(CCCCC2)C2CCCCC(O)C12 (stereo unspecified),> 100 µM (inactive),> 100 µM (inactive),> 100 µM (inactive),> 100 µM (inactive),> 100 µM (inactive),> 100 µM (inactive),> 100 µM (inactive),> 100 µM (inactive),–,> 100 µM (inactive),> 100 µM (inactive),> 100 µM (inactive),> 100 µM (inactive),> 100 µM (inactive),> 100 µM (inactive)
CC(C)C(=O)/C=C/c1ccc(Br)cc1,12.7 µM (inactive),15.2 µM (inactive),12.9 µM (inactive),24 µM (inactive),19.2 µM (inactive),19.2 µM (inactive),14.2 µM (inactive),18.3 µM (inactive),22.3 µM (inactive),27 µM (inactive),7.31 µM (inactive),17.1 µM (inactive),–,16.1 µM (inactive),16.4 µM (inactive)
CCC1=C(C(C)=O)[C@@H]2CCCCC(C(=O)OC)[C@@H]2C1=O (stereo partly specified),> 100 µM (inactive),> 100 µM (inactive),> 100 µM (inactive),> 100 µM (inactive),> 100 µM (inactive),> 100 µM (inactive),–,> 100 µM (inactive),> 100 µM (inactive),> 100 µM (inactive),> 100 µM (inactive),> 100 µM (inactive),> 100 µM (inactive),> 100 µM (inactive),> 100 µM (inactive)
C=C1CCC2[C@@H](CCC3[C@]2(C)CCC[C@]3(C)C(=O)OC)C1CCO (stereo partly specified),14.8 µM (inactive),5.11 µM (inactive),10.5 µM (inactive),20.5 µM (inactive),13.6 µM (inactive),4 µM (inactive),12.6 µM (inactive),–,29.3 µM (inactive),16.3 µM (inactive),14.2 µM (inactive),–,14.9 µM (inactive),15.1 µM (inactive),14.7 µM (inactive)
